Experimental data from patent US8952024B2, “Herbicidal pyrimidone derivatives” (E I du Pont de Nemours and Company, priority 2009, dated 2015).

Legend:
Type in all cases: in vivo
[1] = test system: velvetleaf (Abutilon theophrasti); test: Test A pre-/postemergence plant response
How it was run: (§1)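 Pre: directed soil spray on seeded loam/sand blend. Post: same formulation (non-phytotoxic solvent + surfactant) on 2–10 cm plants, 1–2 leaf stage. Greenhouse ~10 d; visual injury score 0–100 vs untreated.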

[2] = test system: large crabgrass (Digitaria sanguinalis); test: Test A pre-/postemergence plant response
How it was run: as §1

[3] = test system: wheat (Triticum aestivum); test: Test A pre-/postemergence plant response
How it was run: as §1

[4] = test system: pigweed (Amaranthus retroflexus); test: Test A pre-/postemergence plant response
How it was run: as §1

[5] = test system: giant foxtail (Setaria faberii); test: Test A pre-/postemergence plant response
How it was run: as §1

[6] = test system: barnyardgrass (Echinochloa crus-galli); test: Test A pre-/postemergence plant response
How it was run: as §1

corn (Zea mays) = test: Test A pre-/postemergence plant response
How it was run: as §1

[7] = test system: morningglory (Ipomoea spp.); test: Test A pre-/postemergence plant response
How it was run: as §1

[8] = test system: chickweed (Stellaria media); test: Test B postemergence plant response
How it was run: (§2)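 Plants at the 1- to 4-leaf stage (2 to 18 cm tall), grown in pots of peat moss/vermiculite medium with wetting agent and starter nutrients, received postemergence applications of test chemicals. After 13 to 15 days in a greenhouse, injury was rated visually against untreated controls on a 0 (no effect) to 100 (complete control) scale.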

[9] = test system: windgrass (Apera spica-venti); test: Test B postemergence plant response
How it was run: as §2

[10] = test system: canarygrass (Phalaris minor); test: Test B postemergence plant response
How it was run: as §2

rice (Oryza sativa) = test: Test B flooded paddy test; conditions: for Plant response rating, Flood, Rice: 250 g ai/ha, flooded paddy test, visual rating on 0 to 100 scale (0 no effect, 100 complete control) after 13 to 15 days; for Plant response rating, Rice: Flood (flooded paddy test), 13 to 15 days
How it was run: (§3)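 Post-flood paddy application: compounds are introduced into water 3 cm deep over the soil, reaching plants at the 2-leaf stage. The water level is maintained, and after 13–15 days under greenhouse conditions, response is judged by eye relative to controls, where 100 means complete control.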

[11] = test system: ducksalad (Heteranthera limosa); test: Test B flooded paddy test; conditions: for Plant response rating, Flood, Ducksalad: 250 g ai/ha, flooded paddy test, visual rating on 0 to 100 scale (0 no effect, 100 complete control) after 13 to 15 days; for Plant response rating, Ducksalad: Flood (flooded paddy test), 13 to 15 days
How it was run: as §3

[12] = Postemergence, 125 g ai/ha, 0 to 100 scale where 0 is no effect and 100 is complete control
[13] = Postemergence, 500 g ai/ha, 0 to 100 scale, 0 = no effect, 100 = complete control, approx. ten days
[14] = Preemergence, 125 g ai/ha, 0 to 100 scale, 0 = no effect, 100 = complete control
[15] = Preemergence, 500 g ai/ha, visual injury, 0 to 100 scale (0 no effect, 100 complete control), approx. ten days
[16] = 31 g ai/ha, postemergence, scale 0 to 100, 0 is no effect, 100 is complete control
[17] = 62 g ai/ha, postemergence, 0 is no effect, 100 is complete control, 13 to 15 days
[18] = Postemergence, 125 g ai/ha, visual rating after 13 to 15 days, scale 0 (no effect) to 100 (complete control)
[19] = Postemergence, 250 g ai/ha, scale 0 to 100 (0 no effect, 100 complete control)
[20] = 62 g ai/ha, scale of 0 to 100 where 0 is no effect and 100 is complete control
[21] = 125 g ai/ha, scale 0 to 100, 0 is no effect, 100 is complete control
[22] = Flood, 31 g ai/ha, scale 0 to 100 (0 no effect, 100 complete control)
[23] = Postemergence, 125 g ai/ha, visual injury, 0 to 100 scale (0 no effect, 100 complete control), approx. ten days
[24] = Postemergence, 62 g ai/ha, scale 0 (no effect) to 100 (complete control), 13 to 15 days
[25] = 31 g ai/ha, scale of 0 to 100 where 0 is no effect and 100 is complete control

## COCCn1c(-c2ccccc2)ncc(C(=O)C2=C(O)CCCC2=O)c1=O [Compound 85]
[1]; [12]
  Plant response rating, Velvetleaf: 100
[1]; [13]
  Plant response rating, Velvetleaf: 100
[1]; [14]
  Plant response rating, Velvetleaf: 70
[2]; [12]
  Plant response rating, Crabgrass, Large: 90
[2]; [13]
  Plant response rating, Crabgrass, Large: 90
[2]; [14]
  Plant response rating, Crabgrass, Large: 100
[2]; [15]
  Plant response rating, Crabgrass, Large: 100
[3]; [12]
  Plant response rating, Wheat: 0
[3]; [13]
  Plant response rating, Wheat: 40
[3]; [14]
  Plant response rating, Wheat: 0
[3]; [15]
  Plant response rating, Wheat: 40
[4]; [12]
  Plant response rating, Pigweed: 100
[4]; [13]
  Plant response rating, Pigweed: 100
[5]; [12]
  Plant response rating, Foxtail, Giant: 70
[5]; [13]
  Plant response rating, Foxtail, Giant: 90
[5]; [15]
  Plant response rating, Foxtail, Giant: 90
[6]; [12]
  Plant response rating, Barnyardgrass: 90
[6]; [13]
  Plant response rating, Barnyardgrass: 90
[6]; [14]
  Plant response rating, Barnyardgrass: 50
[6]; [15]
  Plant response rating, Barnyardgrass: 100
Corn (Zea mays); [12]
  Plant response rating, Corn: 10
Corn (Zea mays); [13]
  Plant response rating, Corn: 80
Corn (Zea mays); [14]
  Plant response rating, Corn: 0
Corn (Zea mays); [15]
  Plant response rating, Corn: 10
[7]; [12]
  Plant response rating, Morningglory: 100
[7]; [13]
  Plant response rating, Morningglory: 100
[7]; [14]
  Plant response rating, Morningglory: 50
[7]; [15]
  Plant response rating, Morningglory: 80
[8]; [16]
  Plant response rating, Chickweed: 85
[8]; [17]
  Chickweed plant response rating (0 to 100 scale): 95
[8]; [18]
  Plant response rating, Chickweed: 95
[8]; [19]
  Plant response rating, Chickweed: 98
[9]; [16]
  Plant response rating, Windgrass: 40
[9]; [17]
  Windgrass plant response rating (0 to 100 scale): 70
[9]; [19]
  Plant response rating, Windgrass: 95
[10]; [16]
  Plant response rating, Canarygrass: 35
[10]; [17]
  Canarygrass plant response rating (0 to 100 scale): 40
[10]; [18]
  Plant response rating, Canarygrass: 55
[10]; [19]
  Plant response rating, Canarygrass: 60
Rice (Oryza sativa)
  Plant response rating, Flood, Rice: 20
Rice (Oryza sativa); [20]
  Plant response rating, Rice: 0
Rice (Oryza sativa); [21]
  Plant response rating, Rice: 15
Rice (Oryza sativa); [22]
  Rice plant response rating: 0
[11]
  Plant response rating, Flood, Ducksalad: 65
[11]; [20]
  Plant response rating, Ducksalad: 50
[11]; [21]
  Plant response rating, Ducksalad: 60
[11]; [22]
  Ducksalad plant response rating: 40

## Cc1cc(-n2c(-c3ccccc3)ncc(C(=O)C3=C(O)CCCC3=O)c2=O)ccc1F [Compound 53]
[1]; [23]
  Velvetleaf plant response rating: 100
[1]; [13]
  Plant response rating, Velvetleaf: 100
[1]; [14]
  Plant response rating, Velvetleaf: 80
[1]; [15]
  Plant response rating, Velvetleaf: 90
[2]; [23]
  Crabgrass, Large plant response rating: 90
[2]; [13]
  Plant response rating, Crabgrass, Large: 100
[2]; [14]
  Plant response rating, Crabgrass, Large: 90
[2]; [15]
  Plant response rating, Crabgrass, Large: 100
[3]; [23]
  Wheat plant response rating: 30
[3]; [13]
  Plant response rating, Wheat: 50
[3]; [14]
  Plant response rating, Wheat: 0
[3]; [15]
  Plant response rating, Wheat: 10
[4]; [23]
  Pigweed plant response rating: 100
[4]; [13]
  Plant response rating, Pigweed: 100
[4]; [14]
  Plant response rating, Pigweed: 90
[4]; [15]
  Plant response rating, Pigweed: 100
[5]; [23]
  Foxtail, Giant plant response rating: 90
[5]; [13]
  Plant response rating, Foxtail, Giant: 90
[5]; [14]
  Plant response rating, Foxtail, Giant: 70
[5]; [15]
  Plant response rating, Foxtail, Giant: 100
[6]; [23]
  Barnyardgrass plant response rating: 90
[6]; [13]
  Plant response rating, Barnyardgrass: 100
[6]; [14]
  Plant response rating, Barnyardgrass: 40
[6]; [15]
  Plant response rating, Barnyardgrass: 100
Corn (Zea mays); [23]
  Corn plant response rating: 0
Corn (Zea mays); [13]
  Plant response rating, Corn: 80
Corn (Zea mays); [14]
  Plant response rating, Corn: 0
Corn (Zea mays); [15]
  Plant response rating, Corn: 0
[7]; [23]
  Morningglory plant response rating: 100
[7]; [13]
  Plant response rating, Morningglory: 100
[7]; [14]
  Plant response rating, Morningglory: 80
[7]; [15]
  Plant response rating, Morningglory: 90
[8]; [16]
  Plant response rating, Chickweed: 85
[8]; [24]
  Plant response rating, Chickweed: 98
[8]; [18]
  Plant response rating, Chickweed: 98
[8]; [19]
  Plant response rating, Chickweed: 100
[9]; [16]
  Plant response rating, Windgrass: 60
[9]; [24]
  Plant response rating, Windgrass: 80
[9]; [18]
  Plant response rating, Windgrass: 85
[9]; [19]
  Plant response rating, Windgrass: 95
[10]; [16]
  Plant response rating, Canarygrass: 40
[10]; [24]
  Plant response rating, Canarygrass: 80
[10]; [18]
  Plant response rating, Canarygrass: 90
[10]; [19]
  Plant response rating, Canarygrass: 90
Rice (Oryza sativa)
  Plant response rating, Flood, Rice: 85
Rice (Oryza sativa); [25]
  Plant response rating, Rice: 15
Rice (Oryza sativa); [20]
  Plant response rating, Rice: 20
Rice (Oryza sativa); [21]
  Plant response rating, Rice: 60
[11]
  Plant response rating, Flood, Ducksalad: 75
[11]; [25]
  Plant response rating, Ducksalad: 40
[11]; [20]
  Plant response rating, Ducksalad: 65
[11]; [21]
  Plant response rating, Ducksalad: 75
